Columns and labels:
[1] = test system: retinas from Rho^P23H mice at P12; assay: P12 Rho^P23H retinal explants, rod degeneration (ONL nuclei, Gnb1); format: cell-based, mouse; conditions: 1 μM, vs DMSO
Excerpt: (§1) The effect of PR1 on Rho expression in adult rods might have potential as a way to slow the degeneration of these cells in dominant forms of retinitis pigmentosa, like Rho^P23H. In this disease, the affected individuals express a mutant form of rhodopsin that is likely inappropriately processed and ultimately leads to the death of the rods. […] The majority of rod cell death in the Rho^P23H transgenic line occurs between P14 and P21. Therefore, explants of retinas from Rho^P23H mice at P12 were made and treated the explants with 1 μM PR1 or DMSO (FIG. 9H). After 6 days in vitro, the retinas were processed for histology. The number of nuclei were counted in the ONL of each retina in the central region 100 μm from the optic nerve head. […] Gnb1 expression was also monitored as another measure of rod photoreceptor preservation because this is not directly affected by PR1 and thus serves as a surrogate for rod number. […]
RNA was isolated using TRIzol (Invitrogen) and cDNA was synthesized using the iScript cDNA synthesis kit (Bio-Rad) following an intervening DNase treatment with RQ1 RNase-free DNase (Promega). SSO Fast (Bio-Rad) was used for quantitative real-time PCR. For analysis, values were normalized to Gapdh and ΔΔCt between DMSO and compound-treated samples was expressed as percent of DMSO treated controls (100*2^ΔΔCt). […]

Thrb (Trβ2) = assay: Cone gene expression, Thrb (FIG. 5)
[2] = test system: retina from Rho^P23H transgenic mice at P8; assay: P8 Rho^P23H retinal explants, rhodopsin Western blot; format: cell-based, mouse; conditions: 2 μM, three days
Excerpt: as §1, with “[…] […]” for “Therefore, explants of retinas from Rho^P23H mice at P12 were made and treated the explants with 1 μM PR1 or DMSO (FIG. 9H). After 6 days in vitro, the retinas were processed for histology.”
Retinal explants or retinas were homogenized in lysis buffer (50 mM Tris, 100 mM NaCl, 5 mM EDTA, 0.1% SDS, 1% Triton X-100, 2.5% glycerol, and 1× protease inhibitor cocktail) and equal amounts of protein samples were loaded and run in a 4-20% SDS gel (Bio-Rad). […] Signals were visualized on X-ray film with SuperSignal West Dura Extended Duration Substrate (Thermo Fisher Scientific) and quantified using ImageJ software (NIH).

number of rod photoreceptors (nuclei) in the ONL, 100 μm from the optic nerve head ([1]; 6 days in vitro): nearly twice
SMILES: Cc1cc(C)cc(NC(=O)CCc2nc3sc4c(c3c(=O)[nH]2)CCCC4)c1 [PR1, N-(3,5-dimethylphenyl)-3-(4-oxo-5,6,7,8-tetrahydro-3H-[1]benzothiolo[2,3-d]pyrimidin-2-yl)propanamide]
Gnb1 expression (surrogate for rod number) [1]: significantly more Gnb1 expression
cone gene expression, Thrb (Trβ2) (Thrb (Trβ2)): increase
rhodopsin expression in the mutant rods [2]: effectively reduced rhodopsin expression

Source: US10849904B2, “Methods for treatment of retinal disease by photoreceptor gene expression modulation” (University of Washington, priority 2015, dated 2020)
